The source of these data is patent US20100311714A1, “1H-IMIDAZO[4,5-c]QUINOLINONE COMPOUNDS” (priority 2009, published 2010).

Type in all cases: cell-based
Test [1] has as its system PKB Ser473 phosphorylation in Rat1-myr-HA-p110 alpha cells. Description: Reverse protein array, PKB Ser473 phosphorylation in Rat1-myr-HA-p110 alpha cells. As to conditions: Rattus norvegicus, 0.5 h, 30 minutes compound incubation, read-out: p-PKB/IC50_alpha. The procedure:
(§1) No. 15140-114) and 10 μg/ml Puromycine (Sigma, cat. No. P9620).
(§2) The Rat1-myr-HA-p110 alpha, beta and delta cells were trypsinized and counted with a CASY TT cell counter (Schärfe System GmbH, Reutlingen Germany). The cells were diluted in fresh DMEM complete medium and 3×10^4 cells/150 μl/well seeded in 96-well TPP-tissue culture plates (TPP, cat. No. 92096). The plates were incubated at 37° C. and 5% CO2 under humidified condition for at least 20 h. Compound of formula I working solutions were prepared freshly as serial 8 step dilutions (vol/vol) in DMSO on the day of the experiment. The working solutions were further diluted 1/500 in cell culture medium to get final compound concentrations of 10, 3.333, 1.111, 0.370, 0.123, 0.041, 0.014, 0.005 μM. The final DMSO concentration was kept constant at 0.2%. cell culture medium containing 0.2% DMSO was used as vehicle treatment control. Post incubation, the cells were treated with the serial compound dilution. 50 μl of the compound medium mixture was added to the wells containing cells and 150 μl DMEM medium and incubated for 30 minutes (37° C., 5% CO2). After 30 minutes of incubation, the medium mixture was quickly removed by aspiration. For cell lysis, a mixture of 10% CLB1 CeLyA lysis buffer (Zeptosens, cat. No. 9000), 90% CSBL1 CeLyA spotting buffer (Zeptosens, cat. No. 9020) was freshly prepared and supplemented with 1% Octyl β-D-glucopyranoside (SIGMA, cat. No. 08001-5G) and 1 mM Na-Orthovanadate (Sigma, cat No. S-6508). 50 μl of the described lysis buffer mix was added to each well, followed by 10 minutes of incubation on ice. After an additional freeze-thaw cycle, another 50 μl of the lysis buffer mix without Octyl β-D-glucopyranoside was added to the wells, and 90 μl of the cell lysate was transferred to a 96-well V-bottom plate (Fisher Scientific, cat. No. 6067Y), followed by a centrifugation step (5 min, 1500 rpm at 19° C. in an Eppendorf 5810R centrifuge) to remove the unlysed cell debris.
(§3) The samples were spotted onto ZeptoMARK® PWG protein microarray chips (Zeptosens, Witterswil, Switzerland) with the piezoelectric microdispense-based, non-contact Nano-Plotter 2.1 (GeSiM, Grosserkmannsdorf, Germany). Each sample was spotted at 4 different sample concentrations (d1=100%, d2=75%, d3=50%, d4=25%) by diluting the cell lysate with the corresponding volume of lysis buffer mix. After spotting the ZeptoMARK® protein microarrays, the chips are incubated for 1 hour at 37° C. To receive a uniform blocking result, the CeLyA blocking buffer BB1 (Zeptosens, cat. No. 9040) is administered via an ultrasonic nebulizer. After 20 minutes of blocking the chips are extensively rinsed with deionized water (Milli-Q quality, 18MΩ×cm) and dried in a nitrogen air flow.
(§4) After the sample spotting and blocking procedure, the ZeptoMARK® chips were transferred to the ZeptoCARRIER (Zeptosens, cat. No. 1100), whose six flow cells individually address the six arrays on a chip, and washed twice with 200 μl CAB1 CeLyA assay buffer (Zeptosens, cat. No. 9032). The assay buffer was then aspirated and each compartment incubated with 100 μl of the primary target antibody (pAkt Ser473; CST#9271) at RT over night. Post incubation, the primary antibody was removed, the arrays washed twice with CAB1 buffer and further incubated with 100 μl of Alexa fluor 647-labeled anti rabbit IgG Fab fragments (Invitrogen; #Z25305) for one hour at RT in the dark. After incubation, the arrays were washed twice with 200 μl CAB1 buffer. The fluorescence of the target-bound Fab fragments is read out on the ZeptoReader (Zeptosens, Witterswil, Switzerland) using a laser (excitation wavelength 635 nm) and a CCD camera. The fluorescence signal was assessed with exposure times of 1, 3, 5 and 10 seconds, depending on the intensity of the signal. The resulting four images taken per array are stored as 16-bit TIF files. […]

The subject of test [2] is PKB Ser473 phosphorylation in Rat1-myr-HA-p110 beta cells. Description: Reverse protein array, PKB Ser473 phosphorylation in Rat1-myr-HA-p110 beta cells. As to conditions: Rattus norvegicus, 0.5 h, 30 minutes compound incubation, read-out: p-PKB/IC50_beta. The procedure: as §1, §2, §3, §4
For test [3], the system named is PKB Ser473 phosphorylation in Rat1-myr-HA-p110 delta cells. Description: Reverse protein array, PKB Ser473 phosphorylation in Rat1-myr-HA-p110 delta cells. The conditions noted are these: Rattus norvegicus, 0.5 h, 30 minutes compound incubation, read-out: p-PKB/IC50_delta. The method, then:
as §1, §2, §3, §4

As for `CNc1ccc(-c2ccc3ncc4c(c3c2)n(-c2ccc(OC)nc2C)c(=O)n4C)cn1` [Example 11.2, 1-(6-Methoxy-2-methyl-pyridin-3-yl)-3-methyl-8-(6-methylamino-pyridin-3-yl)-1,3-dihydro-imidazo[4,5-c]quinolin-2-one], the figures for the IC50 in test [1], in test [2] and in test [3] were 6.97 nM, 15.2 nM and 31.4 nM, respectively.
The matching figures for `CNc1ncc(-c2ccc3ncc4c(c3c2)n(-c2ccc(OC)nc2C)c(=O)n4C)cn1` [Example 11.3, 1-(6-Methoxy-2-methyl-pyridin-3-yl)-3-methyl-8-(2-methylamino-pyrimidin-5-yl)-1,3-dihydro-imidazo[4,5-c]quinolin-2-one]: 8.83 nM, 18.1 nM and 23.2 nM.
As to `COc1ccc(-n2c(=O)n(C)c3cnc4ccc(-c5cnc(N(C)C)nc5)cc4c32)c(C)n1` [Example 11.4, 8-(2-Dimethylamino-pyrimidin-5-yl)-1-(6-methoxy-2-methyl-pyridin-3-yl)-3-methyl-1,3-dihydro-imidazo[4,5-c]quinolin-2-one], the IC50 is 86.6 nM in test [1], 127 nM in test [2] and 136 nM in test [3].
Turning to `COc1ccc(-c2ccc3ncc4c(c3c2)n(-c2ccc(OC)nc2C)c(=O)n4C)cn1` [Example 11.5, 1-(6-Methoxy-2-methyl-pyridin-3-yl)-8-(6-methoxy-pyridin-3-yl)-3-methyl-1,3-dihydro-imidazo[4,5-c]quinolin-2-one], the IC50 in test [1] is 16.9 nM; in test [2], 40.8 nM; in test [3], 66.9 nM.
The matching figures for `COc1ccc(-n2c(=O)n(C)c3cnc4ccc(-c5cnc(N)c(C(F)(F)F)c5)cc4c32)c(C)n1` [Example 11.6, 8-(6-Amino-5-trifluoromethyl-pyridin-3-yl)-1-(6-methoxy-2-methyl-pyridin-3-yl)-3-methyl-1,3-dihydro-imidazo[4,5-c]quinolin-2-one]: 6.11 nM, 13 nM and 15.5 nM.
